Measured values reported in PubChem BioAssay AID1645866 (Buhrlage Lab, Dana-Farber Cancer Institute and Novartis …, 2021).
Calls of active or inactive are those of the source.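 The calls were made as follows: active = in confirmatory dose-response testing, peak deubiquitinase inhibition of 30% or more; inactive = the rest.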

Target: Ubiquitin carboxyl-terminal hydrolase 28 (Homo sapiens) (UniProt Q96RU2)
Experiment: Ubiquitin-specific peptidase 28 DUB inhibitors, biochemical concentration-dependence assay, validation of primary screening hits (AID 1645866)
Settings: purified USP28, ubiquitin-rhodamine fluorescence, 30 min

Sequence of Ubiquitin carboxyl-terminal hydrolase 28 (Homo sapiens) (Q96RU2 whole entry, looked up): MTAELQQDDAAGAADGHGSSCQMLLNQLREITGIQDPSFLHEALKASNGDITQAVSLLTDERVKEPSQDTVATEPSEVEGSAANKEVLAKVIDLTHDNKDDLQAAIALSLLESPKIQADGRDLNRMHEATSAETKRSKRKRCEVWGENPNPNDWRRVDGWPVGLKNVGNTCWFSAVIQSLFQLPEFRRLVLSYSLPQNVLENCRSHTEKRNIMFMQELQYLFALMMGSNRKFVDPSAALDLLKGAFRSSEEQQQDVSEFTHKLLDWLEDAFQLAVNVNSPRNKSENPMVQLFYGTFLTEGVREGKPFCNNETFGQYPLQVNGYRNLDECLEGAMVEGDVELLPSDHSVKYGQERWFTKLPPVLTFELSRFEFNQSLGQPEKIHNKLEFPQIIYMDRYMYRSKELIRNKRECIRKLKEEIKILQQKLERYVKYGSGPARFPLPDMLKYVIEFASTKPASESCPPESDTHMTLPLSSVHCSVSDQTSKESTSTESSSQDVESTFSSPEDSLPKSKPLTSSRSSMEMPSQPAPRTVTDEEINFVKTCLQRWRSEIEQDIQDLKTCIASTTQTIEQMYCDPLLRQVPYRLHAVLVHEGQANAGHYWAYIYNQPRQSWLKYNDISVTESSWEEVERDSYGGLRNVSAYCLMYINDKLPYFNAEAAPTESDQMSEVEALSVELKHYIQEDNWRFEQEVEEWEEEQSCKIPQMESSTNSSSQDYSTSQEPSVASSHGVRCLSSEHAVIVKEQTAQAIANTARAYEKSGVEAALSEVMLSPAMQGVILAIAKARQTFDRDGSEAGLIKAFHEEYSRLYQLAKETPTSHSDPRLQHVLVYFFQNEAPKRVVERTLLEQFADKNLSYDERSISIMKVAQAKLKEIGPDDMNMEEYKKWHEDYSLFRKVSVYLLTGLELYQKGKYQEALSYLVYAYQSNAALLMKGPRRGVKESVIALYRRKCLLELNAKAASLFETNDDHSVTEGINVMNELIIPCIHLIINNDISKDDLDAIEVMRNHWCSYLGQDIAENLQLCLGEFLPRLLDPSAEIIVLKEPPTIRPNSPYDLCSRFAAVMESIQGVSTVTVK

First: CC1CC[C@@]2(NC1)O[C@H]1C[C@H]3[C@@H]4CC=C5C[C@@H](O)CC[C@]5(C)[C@H]4CC[C@]3(C)[C@H]1[C@@H]2C (stereo partly drawn)
Second: C=C1CCC2[C@](C)(CCC[C@]2(C)C(=O)OC)[C@H]1CCc1ccoc1C[N+](C)(C)Cc1ccccc1 (stereo partly drawn)
The IC50 of the first is 1.7-fold higher: 34.3 µM for the first, 20.1 µM for the second.

`O=C(Nc1cccc(-c2nc3ccccc3[nH]2)c1)c1cc2ccccc2oc1=O` and `COc1cc(NC(=O)c2ccc3c(c2)OCO3)ccc1-c1cc2ccccc2oc1=O` are within 1.5-fold of each other in IC50: 2.17 µM for the first, 2.19 µM for the second.

First: O=C1c2c(O)c(Cl)cc3c2[C@@]2(Oc4cc(Cl)c(O)c5c4[C@]3(O2)[C@@H]2O[C@@H]2C5=O)[C@@H]2O[C@H]12
Second: Cc1cc(=O)c2c(O)oc(O)c3c(O)cc(=O)c1c32
The IC50 of the first is 44-fold lower: 0.495 µM for the first, 22 µM for the second. The first is the more potent here.

Going from `O=C(Nc1cc(F)c2nc(N3CCOCC3)ccc2c1)c1ccc(Br)o1` to `CCS(=O)(=O)N1CCc2cc(C(=O)Nc3ccc4c(c3)OCCO4)ccc21`, the IC50 falls from 37.5 µM to 0.364 µM (100-fold).

Going from `Cc1cc(C(F)(F)F)n(-c2ccc(NC(=O)Nc3cccc(C(F)(F)F)c3)cc2)n1` to `Cc1cc(C)n(-c2ccc(C(=O)Nc3cccc(S(=O)(=O)N4CCCC4)c3)cc2)n1`, the IC50 falls from 5.05 µM to 2.13 µM (2.4-fold). The second is the more potent here.

`CCn1ccc2c(cc(C(=O)Nc3ccccc3F)n2C)c1=O` and `Cc1cccc(NC(=O)c2nn(C)c3ccccc3c2=O)c1` are within 1.5-fold of each other in IC50: 15.2 µM for the first, 16.5 µM for the second.

Going from `Cc1cccc(NC(=O)Nc2ccc(C)n(CC(=O)Nc3ccccc3)c2=O)c1` to `CC(=O)N1CCc2cc(S(=O)(=O)NC(Cc3ccccc3)C(=O)Nc3cccc(Cl)c3C)ccc21` (stereo not drawn), the IC50 rises from 4.73 µM to 9.5 µM (2-fold).

First: CC(C)c1ccc(NC(=O)c2cc3ncc(Br)cn3n2)cc1
Second: COc1ccc2nc(-c3ccc(NC(=O)c4cccc(OC)c4OC)cc3)cn2n1
The IC50 of the first is 2.1-fold higher: 5.14 µM for the first, 2.43 µM for the second.

`CCCCN1CC(C(=O)Nc2ccc(C(=O)Nc3ccc(F)c(Cl)c3)cc2)CC1=O` (stereo not drawn) and `O=C(Nc1cccc(OC(=O)c2ccc(Cl)cc2)c1)c1ccc(Cl)cc1` are within 1.5-fold of each other in IC50: 34.2 µM for the first, 41.2 µM for the second.

Going from `O=C1NC(=O)/C(=C/c2ccc(OC(=O)c3ccc(Cl)cc3Cl)cc2)N1` to `O=C(COC(=O)c1cc(Cl)ccc1O)Nc1ccc2c(c1)OCCO2`, the IC50 rises from 4.46 µM to 24.3 µM (5.4-fold).

`O=C(Cc1cc(-c2ccccc2)on1)NCc1c(F)cccc1F` and `O=C(Cc1cccc2ccccc12)Nc1nc2ccc(F)cc2s1` are within 1.5-fold of each other in IC50: 29.1 µM for the first, 36.9 µM for the second.

Compared with `COc1cc(C2SCC(=O)Nc3c2c(-c2ccccc2)nn3-c2ccccc2)cc(OC)c1OC` (stereo not drawn), `CC(OC(=O)c1cn(-c2ccccc2)nc1-c1cccnc1)C(=O)Nc1cccc(S(=O)(=O)N(C)C)c1` (stereo not drawn) is 9.2-fold higher in IC50: 3.37 µM for the first, 30.9 µM for the second. The first is the more potent here.

First: O=C(Nc1ccc(-c2cn3ccccc3n2)cc1)C1C=C2C=C(Br)C=CC2OC1=O (stereo not drawn)
Second: CC(=O)c1ccc(NC(=O)CC2C(=O)Nc3nc4ccccc4n32)cc1 (stereo not drawn)
The IC50 of the first is 14-fold lower: 1.97 µM for the first, 27.3 µM for the second. The first is the more potent here.

First: Cc1cccc(NC(=O)Cn2cnc(-c3noc(-c4ccccc4)n3)c2)c1C
Second: O=[N+]([O-])c1cccc(-c2noc(CSc3ccccc3)n2)c1
The IC50 of the first is 2.8-fold lower: 1.31 µM for the first, 3.72 µM for the second. The first is the more potent here.

Compared with `CC(C)=CCC/C(C)=C/Cc1c(O)cc2c(c1O)C(=O)OC2`, `CCC1(C)Cc2c(sc3nc(SCC(=O)Nc4ccc(C(C)=O)cc4)nc(N)c23)CO1` (stereo not drawn) is 7.7-fold higher in IC50: 2.33 µM for the first, 17.9 µM for the second. The first is the more potent here.

`Cc1cc(C(=O)NC2(O)C(=O)c3ccccc3C2=O)n(C)n1` and `O=C(CNC(=O)c1cccc(F)c1)Nc1nc2ccccc2[nH]1` are within 1.5-fold of each other in IC50: 19 µM for the first, 24.5 µM for the second.

Compared with `Cn1c(=O)/c(=C/c2ccccc2)[nH]c(=O)/c1=C/c1ccccc1`, `O=C(/C=C/c1cnc2ccccc2c1)NCc1ccccc1` is 2.2-fold higher in IC50: 10.2 µM for the first, 22.6 µM for the second. The first is the more potent here.

Compared with `CC1CC(=O)Nc2ccccc2N1S(=O)(=O)c1ccc(C#N)cc1` (stereo not drawn), `Cc1nc2ccc(NC(=O)COc3ccccc3[N+](=O)[O-])cc2s1` is 2.8-fold lower in IC50: 33.1 µM for the first, 11.8 µM for the second. The second is the more potent here.

`COc1ccc(NC(=O)CNC(=O)c2ccc3nc(-n4cccc4)sc3c2)cc1` and `CCOc1ccc2cc3c(nc2c1)OC(=O)N(Cc1ccc(C)o1)C3` are within 1.5-fold of each other in IC50: 3.11 µM for the first, 2.93 µM for the second.

Work on `CCOC(=O)CSc1nnc(-c2cnn(-c3ccccc3)c2N)o1` yielded an IC50 of 19.9 µM.

With `CC(=O)N1Cc2ccccc2CC2(CCCN(CC3CCOCC3)C2)C1` (stereo not drawn) the IC50 was > 50 µM (inactive).
`Cc1ccc(C)c(-n2c(C)cc(/C=C3/C(=N)N4C(c5ccc(F)cc5)=CSC4=NC3=O)c2C)c1` was tested, and the IC50 was > 50 µM (inactive).
For `C=C(NC(=O)C(=C)NC(=O)c1csc(C2=N[C@@H]3c4csc(n4)[C@H]4NC(=O)c5csc(n5)[C@H]([C@](C)(O)[C@@H](C)O)NC(=O)C5CSC(=N5)/C(=C/C)NC(=O)C([C@@H](C)O)NC(=O)c5csc(n5)[C@]3(CC2)NC(=O)[C@H](C)NC(=O)C(=C)NC(=O)[C@H](C)NC(=O)C([C@@H](C)CC)NC2C=Cc3c(C(C)O)cc(nc3[C@H]2O)C(=O)OC4C)n1)C(N)=O` (stereo partly drawn), the IC50 was > 50 µM (inactive).
With `CC(=O)Nc1ccc(Cc2nc(-c3ccc4c(c3)nc(C)c(=O)n4C3CCCC3)no2)cc1` the IC50 was > 50 µM (inactive).
For `Cc1ccc2c(Nc3ccc(CC(=O)O)cc3)c(C(=O)N3CCCC3)cnc2n1`, the IC50 was > 50 µM (inactive).
In the case of `O=C(O)Cc1ccc(Nc2nc3ccccc3n3nnnc23)cc1`, the IC50 is reported as > 50 µM (inactive).
`Cn1c(C(=O)NCc2ccccn2)cc2c(=O)[nH]c3ccccc3c21` was tested, and the IC50 was > 50 µM (inactive).
With `Cc1nc(CN2CCn3c(Cn4cccn4)cnc3C2C)cs1` (stereo not drawn) the IC50 was > 50 µM (inactive).
`CCOc1ccc(C2=NCCNC3=C2C(c2ccccc2)N(c2ccccc2)C3=O)cc1` (stereo not drawn) was tested, and the IC50 was > 50 µM (inactive).
